Experimental findings from patent publication US10611751B2, “Dopamine D1 receptor positive allosteric modulators” (Eli Lilly and Company, priority 2018, dated 2020) are described below.

The target in this assay is human D1 receptor (Homo sapiens (Human), UniProt P21728). The experiment in a line: Human D1 Receptor PAM Assay (cAMP HTRF, potentiator mode with EC20 dopamine). The format is cell-based. Particulars: for EC50: HEK293 cells expressing human D1 receptor, 12 nM dopamine (EC20), cAMP, read-out: Abs EC50; for Emax: fitted top of curve, 0% = EC20 dopamine, 100% = 5 μM dopamine, read-out: % Top (% Potentiation). The text has this: The PAM activity of the compounds of the present invention may be measured essentially as described in Svensson et al., An Allosteric Potentiator of the Dopamine D1 Receptor Increases Locomotor Activity in Human D1 Knock-in Mices without Casusing Stereotypy or Tachyphylaxis. J. Pharmacol. Exp. Ther. (2017) 360:117-128.
Chain of human D1 receptor (P21728 whole entry): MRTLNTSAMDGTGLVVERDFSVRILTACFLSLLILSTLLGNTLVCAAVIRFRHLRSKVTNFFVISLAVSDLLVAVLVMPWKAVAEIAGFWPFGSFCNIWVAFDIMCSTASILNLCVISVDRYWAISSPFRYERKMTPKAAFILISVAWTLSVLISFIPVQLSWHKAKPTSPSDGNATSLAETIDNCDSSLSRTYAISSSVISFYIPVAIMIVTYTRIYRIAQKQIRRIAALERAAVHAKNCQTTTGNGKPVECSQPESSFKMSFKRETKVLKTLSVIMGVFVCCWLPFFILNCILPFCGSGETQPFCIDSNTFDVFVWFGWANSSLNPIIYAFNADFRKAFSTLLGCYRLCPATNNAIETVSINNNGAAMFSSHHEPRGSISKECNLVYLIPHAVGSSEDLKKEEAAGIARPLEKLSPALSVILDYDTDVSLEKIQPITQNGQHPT
More specifically, HEK293 cells that stably express the human D1 receptor (Accession number NM_000794) are generated by gene transduction using the pBABE-bleo retroviral vector and selected with Zeocin™ (InvivoGen). At approximately 80% confluency, the cells are harvested using TrypLE™ Express (Gibco), suspended in FBS plus 8% DMSO, and stored in liquid nitrogen. On the day of the assay, cells are thawed and resuspended in STIM buffer (Hanks Balanced Salt Solution supplemented with 0.1% BSA, 20 mM HEPES, 500 μM IBMX, and 100 μM ascorbic acid).
Test compound is serially diluted (1:2) with DMSO into assay plates (ProxiPlate-384 Plus, PerkinElmer) using acoustic dispensing (Labcyte) to provide 20 concentrations for full response curves. […] Plates are incubated at room temperature for a total reaction time of 60 min.
cAMP production is quantified using HTRF® detection (Cisbio) according to the manufacturer's instructions. Generally, lysis buffer containing anti-cAMP cryptate (5 μL) and D2-conjugate (from HTRF® kit) (5 μL) is added to the wells, plates are incubated for an additional 60-90 min, and the time-resolved fluorescence is detected using an EnVision™ plate reader (PerkinElmer). Fluorescence data is converted to cAMP concentrations using a cAMP standard curve and analyzing using a 4-parameter non-linear logistic equation (Genedata Screener, version 13.0.5-standard). For potentiator mode concentration-response curves, results are expressed as percent of the window between a response at EC20 concentration of dopamine alone (normalized to 0%) and the maximum response to dopamine (defined by response to 5 μM dopamine, final concentration, normalized as 100%).
Absolute EC50 values are calculated based on the maximum and minimum responses of the control agonist (dopamine). The % Potentiation (% Top) is determined from the fitted top of the concentration response curve.
(Time-resolved FRET reads energy transfer from a long-lived donor to a nearby acceptor.)

A word on the EC50: it is the concentration that produces a half-maximal response. As to `CCn1cc(-c2cccc3c2C[C@H](CO)N(C(=O)Cc2c(Cl)cccc2Cl)[C@H]3C)cn1` [Example 2, 2-(2,6-dichlorophenyl)-1-((1S,3R)-5-(1-ethyl-1H-pyrazol-4-yl)-3-(hydroxymethyl)-1-methyl-3,4-dihydroisoquinolin-2(1H)-yl)ethan-1-one], the EC50 was 172 nM and the Emax worked out at 91.2%.
Taken in the same sequence, the figures for `C[C@H]1c2cccc(-c3cnn(C4CC4)c3)c2C[C@H](CO)N1C(=O)Cc1c(Cl)cccc1Cl` [Example 3, 1-((1S,3R)-5-(1-cyclopropyl-1H-pyrazol-4-yl)-3-(hydroxymethyl)-1-methyl-3,4-dihydroisoquinolin-2(1H)-yl)-2-(2,6-dichlorophenyl)ethan-1-one] were 287 nM and 88.1%.
In the case of `C[C@H]1c2cccc(-c3cnn(CCO)c3)c2C[C@H](CO)N1C(=O)Cc1ccccc1Cl` [Example 5, 1-((1S,3R)-5-(1-(2-(l1-oxidaneyl)ethyl)-1H-pyrazol-4-yl)-3-(hydroxymethyl)-1-methyl-3,4-dihydroisoquinolin-2(1H)-yl)-2-(2-chlorophenyl)ethan-1-one], the EC50 stood at 18.3 nM and the Emax worked out at 79.1%.
Taken in the same sequence, the figures for `C[C@H]1c2cccc(-c3cnn(C4COC4)c3)c2C[C@H](CO)N1C(=O)Cc1c(F)cccc1Cl` [Example 6, 2-(2-chloro-6-fluorophenyl)-1-((1S,3R)-3-(hydroxymethyl)-1-methyl-5-(1-(oxetan-3-yl)-1H-pyrazol-4-yl)-3,4-dihydroisoquinolin-2(1H)-yl)ethan-1-one] were 42.2 nM and 80.4%.
Take `C[C@H]1c2cccc(-c3cnn(C)c3)c2C[C@H](CO)N1C(=O)Cc1ccccc1Cl` [Example 7, 2-(2-chlorophenyl)-1-((1S,3R)-3-(hydroxymethyl)-1-methyl-5-(1-methyl-1H-pyrazol-4-yl)-3,4-dihydroisoquinolin-2(1H)-yl)ethan-1-one]: the 50% effective concentration (EC50) turned out to be 81.2 nM and the Emax was found to be 82.4%.
In the case of `C[C@H]1c2cccc(-c3cn[nH]c3)c2C[C@H](CO)N1C(=O)Cc1c(F)cccc1Cl` [Example 9, 2-(2-chloro-6-fluorophenyl)-1-((1S,3R)-3-(hydroxymethyl)-1-methyl-5-(1H-pyrazol-4-yl)-3,4-dihydroisoquinolin-2(1H)-yl)ethan-1-one], the concentration giving a half-maximal response (EC50) came out at 28 nM and the Emax turned out to be 81.5%.
For `C[C@H]1c2cccc(-c3cn[nH]c3)c2C[C@H](CO)N1C(=O)Cc1c(F)cccc1F` [Example 10, 2-(2,6-difluorophenyl)-1-((1S,3R)-3-(hydroxymethyl)-1-methyl-5-(1H-pyrazol-4-yl)-3,4-dihydroisoquinolin-2(1H)-yl)ethan-1-one], the EC50 was 127 nM and the Emax is 78.1%.
On the same counts, the results for `C[C@H]1c2cccc(-c3cn[nH]c3)c2C[C@H](CO)N1C(=O)Cc1cc(F)ccc1Cl` [Example 11, 2-(2-chloro-5-fluorophenyl)-1-((1S,3R)-3-(hydroxymethyl)-1-methyl-5-(1H-pyrazol-4-yl)-3,4-dihydroisoquinolin-2(1H)-yl)ethan-1-one] are 112 nM and 79.8%.
Turning to `C[C@H]1c2cccc(-c3cn[nH]c3)c2C[C@H](CO)N1C(=O)Cc1ccc(F)cc1Cl` [Example 12, 2-(2-chloro-4-fluorophenyl)-1-((1S,3R)-3-(hydroxymethyl)-1-methyl-5-(1H-pyrazol-4-yl)-3,4-dihydroisoquinolin-2(1H)-yl)ethan-1-one], the EC50 was 540 nM and the Emax came out at 77.1%.
Taken in the same sequence, the figures for `C[C@H]1c2cccc(-c3cn[nH]c3)c2C[C@H](CO)N1C(=O)Cc1ccccc1F` [Example 13, 2-(2-fluorophenyl)-1-((1S,3R)-3-(hydroxymethyl)-1-methyl-5-(1H-pyrazol-4-yl)-3,4-dihydroisoquinolin-2(1H)-yl)ethan-1-one] were 484 nM and 89.8%.
For `C[C@H]1c2cccc(-c3cn[nH]c3)c2C[C@H](CO)N1C(=O)Cc1cccc(F)c1F` [Example 14, 2-(2,3-difluorophenyl)-1-((1S,3R)-3-(hydroxymethyl)-1-methyl-5-(1H-pyrazol-4-yl)-3,4-dihydroisoquinolin-2(1H)-yl)ethan-1-one], the EC50 stood at 677 nM and the Emax worked out at 72.6%.
Take `C[C@H]1c2cccc(-c3cn[nH]c3)c2C[C@H](CO)N1C(=O)Cc1cc(F)ccc1F` [Example 15, 2-(2,5-difluorophenyl)-1-((1S,3R)-3-(hydroxymethyl)-1-methyl-5-(1H-pyrazol-4-yl)-3,4-dihydroisoquinolin-2(1H)-yl)ethan-1-one]: the EC50 was determined as 836 nM and the Emax is 75.5%.
